Test results published in PubChem BioAssay AID1648 (Sanford-Burnham Center for Chemical Genomics, 2009).
Activity calls are given as the source filed them. How the calls were made is not given here.

What follows are molecules tested against Serine/threonine-protein kinase mTOR (Homo sapiens) (UniProt P42345) (assay: binders of mTOR FRB domain, biophysical, NMR (AID 1648)). Settings: NMR binding to FRB domain, chemical shift.
Sequence of Serine/threonine-protein kinase mTOR (Homo sapiens) (P42345 2015-2114): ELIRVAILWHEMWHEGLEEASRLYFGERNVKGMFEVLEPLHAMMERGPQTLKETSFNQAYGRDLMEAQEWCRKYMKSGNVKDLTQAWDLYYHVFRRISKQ
With `CC(=O)Nc1cccc(NC(=O)c2ccco2)c1` the Kd was > 4 mM (inactive). `CS(=O)(=O)Nc1ccccc1C(=O)c1ccccc1` was tested, and the Kd was > 4 mM (inactive). `OC[C@H]1O[C@@H](O[C@H]2[C@H](O)[C@@H](O)[C@@H](O)O[C@@H]2CO)[C@H](O)[C@@H](O)[C@@H]1O` was tested, and the Kd was > 4 mM (inactive). In the case of `Nc1cc(=O)[nH]c(=O)n1-c1ccccc1`, the Kd is reported as > 4 mM (inactive). With `O=c1c2ccccc2oc2ccc(O)cc12` the Kd was > 4 mM (inactive). With `CC(=O)Nc1nc2c(s1)C(=O)NCCC2` the Kd was > 4 mM (inactive). For `CN(C)c1ccc(CNn2cnnc2)cc1`, the Kd was > 4 mM (inactive). In the case of `O=c1nc(N2CCOCC2)nc2n1CCO2`, the Kd is reported as > 4 mM (inactive). With `C=CC(C1=CC(=O)C(OC)=CC1=O)c1ccc(O)cc1` (configuration not stated) the Kd was > 4 mM (inactive). For `O=C(Nc1cnccn1)c1cccc(C(F)(F)F)c1`, the Kd was > 4 mM (inactive). In the case of `CC(=O)N1CC2(C)CN(C(C)=O)CC(C)(C1)C2`, the Kd is reported as > 4 mM (inactive). In the case of `Cc1noc(C)c1C(=O)Nc1ccccn1`, the Kd is reported as > 4 mM (inactive). For `Cc1cc(C)n(CC(=O)O)n1`, the Kd was > 4 mM (inactive). For `C=C(C)C1Cc2c(ccc(C(=O)O)c2O)O1` (configuration not stated), the Kd was > 4 mM (inactive). `CC(C)CCn1cnc2c1c(=O)n(C)c(=O)n2C` was tested, and the Kd was > 4 mM (inactive). In the case of `O=C(c1ccco1)N1CCN(c2ccc(Cl)cc2)CC1`, the Kd is reported as > 4 mM (inactive). In the case of `Nc1cc(=O)[nH]c(=S)n1-c1cccc(C(F)(F)F)c1`, the Kd is reported as > 4 mM (inactive). In the case of `COc1ccc(NS(=O)(=O)c2ccc(N)cc2)nn1`, the Kd is reported as > 4 mM (inactive). `N#CCSc1nc2ccccc2c(=O)n1-c1ccccc1` was tested, and the Kd was > 4 mM (inactive). In the case of `Cc1cccc(NC(=O)CN2C(=O)CNC2=O)c1`, the Kd is reported as > 4 mM (inactive). With `CC1Cc2nc(SCC(N)=O)n(C)c(=O)c2S1` (configuration not stated) the Kd was > 4 mM (inactive). For `O=c1c(-c2ccc(O)cc2)coc2cc(O)ccc12`, the Kd was > 4 mM (inactive). For `COCc1cc(=O)oc2cc(N)ccc12`, the Kd was > 4 mM (inactive). With `OCc1cccc2nonc12` the Kd was > 4 mM (inactive). With `COc1cc(/C=C/C(=O)/C=C(O)/C=C/c2ccc(O)c(OC)c2)ccc1O` the Kd was > 4 mM (inactive). In the case of `CC(C)CNc1cc(=O)n(C)c(=O)n1C`, the Kd is reported as > 4 mM (inactive). `O=C1CC(=O)N(c2ccccc2)c2ccccc21` was tested, and the Kd was > 4 mM (inactive). In the case of `COc1ccc(/C=C2/C(=O)N=C(N)N2C)cc1OC`, the Kd is reported as > 4 mM (inactive). In the case of `Oc1ccc2c(c1)OCC1(O)Cc3cc(O)c(O)cc3C21` (configuration not stated), the Kd is reported as > 4 mM (inactive). In the case of `COc1ccc(/C=N/n2cn[nH]c2=S)cc1`, the Kd is reported as > 4 mM (inactive). In the case of `O=C(Oc1ccc(-c2nnco2)cc1)N1CCOCC1`, the Kd is reported as > 4 mM (inactive). For `Nc1cccc(F)c1-c1ncon1`, the Kd was > 4 mM (inactive). `c1ccc(CN2CCC3(CC2)Nc2ccccc2CO3)cc1` was tested, and the Kd was > 4 mM (inactive). In the case of `OCc1cccs1`, the Kd is reported as > 4 mM (inactive). `CS(=O)(=O)c1ccccc1C(=O)Nc1nccs1` was tested, and the Kd was > 4 mM (inactive). With `NC(=O)c1ccc(NC(=O)C2CC2)cc1` the Kd was > 4 mM (inactive). With `O=c1c2ccccc2nc(-c2ccco2)n1-c1nccs1` the Kd was > 4 mM (inactive). `Cc1nc2c(n1O)CCc1c-2no[n+]1[O-]` was tested, and the Kd was > 4 mM (inactive). With `COC(=O)[C@]1(C)CC[C@]2(C)CC[C@]3(C)C4=CCc5c(cc(O)c(O)c5C)[C@]4(C)CC[C@@]3(C)C2C1` (some centres not stated) the Kd was > 4 mM (inactive). In the case of `CCn1c2ccccc2c2nn(C)c(=N)nc21`, the Kd is reported as > 4 mM (inactive). In the case of `Cc1sc2nc(SC3CCOC3=O)[nH]c(=O)c2c1C` (configuration not stated), the Kd is reported as > 4 mM (inactive). In the case of `O=C(Nc1cnccn1)c1cccs1`, the Kd is reported as > 4 mM (inactive). With `Nc1ncnc(Nc2ccccc2C(F)(F)F)n1` the Kd was > 4 mM (inactive). For `Cn1c(=O)[nH]c(=O)c2nsnc21`, the Kd was > 4 mM (inactive). `Cc1ncc(CC(=O)O)s1` was tested, and the Kd was > 4 mM (inactive). With `Cc1cc2ncc(C(=O)O)c(C)n2n1` the Kd was > 4 mM (inactive). For `Cc1cc(=O)c2ccccc2n1CC(N)=O`, the Kd was > 4 mM (inactive). In the case of `CCOc1ccc(Cl)cc1S(=O)(=O)N1CCCC1`, the Kd is reported as > 4 mM (inactive). With `NC(=O)CN1CCC(c2nc3ccccc3[nH]2)CC1` the Kd was > 4 mM (inactive). With `CCC(C)C(=O)O[C@@H]1C[C@@]2(C)[C@H](c3ccoc3)OC(=O)CC23OC2(C)OC34[C@H](OC(=O)C(C)C)[C@@]3(O)[C@@H](OC(=O)C5(C)OC5C)[C@@]5(C)C[C@]3(O)[C@@](C)([C@H]5CC(=O)OC)C14O2` (some centres not stated) the Kd was > 4 mM (inactive). With `CCNC(=S)NS(=O)(=O)c1ccccc1` the Kd was > 4 mM (inactive). For `Cc1nn(C)c(Cl)c1S(=O)(=O)N1CCOCC1`, the Kd was > 4 mM (inactive). With `CC(=O)O[C@@H]1CC2C(C)(C)C(=O)C=C[C@]2(C)C2CC[C@@]3(C)[C@H](c4ccoc4)OC(=O)[C@H]4O[C@]43[C@@]21C` (some centres not stated) the Kd was > 4 mM (inactive). `CCCSc1nnc2[nH]c(=O)cc(N)n12` was tested, and the Kd was > 4 mM (inactive). For `OCC(O)Cc1ccc2c(c1)OCO2` (configuration not stated), the Kd was > 4 mM (inactive). In the case of `Cc1cc(C)c(-c2cc(C(F)(F)F)no2)c(=O)[nH]1`, the Kd is reported as > 4 mM (inactive). With `Cc1cc(C(=O)N2CCN(c3ccccn3)CC2)c(C)o1` the Kd was > 4 mM (inactive).
